Data published in patent US9169254B2, “Spiroimidazolone derivative” (Chugai Seiyaku Kabushiki Kaisha, priority 2009, dated 2015).

molecular target: T1, human PTH1 receptor (Homo sapiens, UniProt Q03431); assay: In vitro cAMP signal activity in HKRK-B7 cells (LLC-PK1 cells overexpressing the human PTH1 receptor); assay type: cell-based; details: HKRK-B7 cells; compound at 1×10^−3 M; cAMP produced as percentage of that produced by hPTH(1-34) at 100 nM
T1 sequence (Q03431 27-593): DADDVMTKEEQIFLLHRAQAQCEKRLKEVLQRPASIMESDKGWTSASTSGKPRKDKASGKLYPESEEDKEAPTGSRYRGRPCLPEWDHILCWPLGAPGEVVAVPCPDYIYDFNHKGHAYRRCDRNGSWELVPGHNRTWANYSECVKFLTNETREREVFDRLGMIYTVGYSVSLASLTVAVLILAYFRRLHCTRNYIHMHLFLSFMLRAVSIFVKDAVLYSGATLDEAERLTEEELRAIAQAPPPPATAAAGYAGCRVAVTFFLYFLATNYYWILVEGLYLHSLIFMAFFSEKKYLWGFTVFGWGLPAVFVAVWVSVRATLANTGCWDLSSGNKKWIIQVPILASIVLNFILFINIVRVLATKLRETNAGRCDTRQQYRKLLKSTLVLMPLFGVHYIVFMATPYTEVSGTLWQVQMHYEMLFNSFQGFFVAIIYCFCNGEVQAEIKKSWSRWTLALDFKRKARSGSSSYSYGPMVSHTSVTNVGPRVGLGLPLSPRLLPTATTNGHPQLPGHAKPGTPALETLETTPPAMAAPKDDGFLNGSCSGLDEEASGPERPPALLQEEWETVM

SMILES | cAMP production activity (%)
Cc1cc(N(C)C(N)=O)cc(C)c1CCS(=O)(=O)N1CCC2(CC1)N=C(c1ccc(OCCCC(F)(F)F)cc1)NC2=O [Compound 1339, 1-[3,5-dimethyl-4-(2-{4-oxo-2-[4-(4,4,4-trifluoro-butoxy)-phenyl]-1,3,8-triaza-spiro[4.5]dec-1-ene-8-sulfonyl}-ethyl)-phenyl]-1-methyl-urea] | 86
Cc1cc(C(=O)N(C)C)ccc1CCS(=O)(=O)N1CCC2(CC1)N=C(c1ccc(OC(F)F)cc1)NC2=O [Compound 118, 4-{2-[2-(4-difluoromethoxy-phenyl)-4-oxo-1,3,8-triaza-spiro[4.5]dec-1-ene-8-sulfonyl]-ethyl}-3,N,N-trimethyl-benzamide] | 73
CCOCc1cc(NC(C)=O)ccc1/C=C/S(=O)(=O)N1CCC2(CC1)N=C(C1CCC(C)CC1)NC2=O (stereo not shown) [Compound 576, N-(3-ethoxymethyl-4-{(E)-2-[2-(4-methyl-cyclohexyl)-4-oxo-1,3,8-triaza-spiro[4.5]dec-1-ene-8-sulfonyl]-vinyl}-phenyl)-acetamide] | 95
Cc1cc(C(=O)N(C)C)ccc1CCS(=O)(=O)N1CCC2(CC1)N=C(C#Cc1ccccc1)NC2=O [Compound 893, 3,N,N-trimethyl-4-[2-(4-oxo-2-phenylethynyl-1,3,8-triaza-spiro[4.5]dec-1-ene-8-sulfonyl)-ethyl]-benzamide] | 14
CC(=O)Nc1ccc(CCS(=O)(=O)N2CCC3(CC2)N=C(c2cccc(C)c2)NC3=O)c(C)c1 [Compound 145, N-{3-Methyl-4-[2-(4-oxo-2-m-tolyl-1,3,8-triaza-spiro[4.5]dec-1-ene-8-sulfonyl)-ethyl]-phenyl}-acetamide] | 129
Cc1cc(C(=O)N(C)C)ccc1CCS(=O)(=O)N1CCC2(CC1)N=C(C1(C(F)(F)F)CCCC1)NC2=O [Compound 138, 3,N,N-trimethyl-4-{2-[4-oxo-2-(1-trifluoromethyl-cyclopentyl)-1,3,8-triaza-spiro[4.5]dec-1-ene-8-sulfonyl]-ethyl}-benzamide] | 49
Cn1cc(-c2ccccc2CCS(=O)(=O)N2CCC3(CC2)N=C(C2CCCCC2)NC3=O)cn1 [Compound 340, 2-cyclohexyl-8-{2-[2-(1-methyl-1H-pyrazol-4-yl)-phenyl]-ethanesulfonyl}-1,3,8-triaza-spiro[4.5]dec-1-en-4-one] | 67
CC(=O)N1CCN(C(=O)c2cc(C)c(/C=C/S(=O)(=O)N3CCC4(CC3)N=C(c3cccc(OC(F)(F)F)c3)NC4=O)c(C)c2)CC1 [Compound 394, 8-{(E)-2-[4-(4-Acetyl-piperazine-1-carbonyl)-2,6-dimethyl-phenyl]-ethenesulfonyl}-2-(3-trifluoromethoxy-phenyl)-1,3,8-triaza-spiro[4.5]dec-1-en-4-one] | 59
O=C1NC(C2CCCCC2)=NC12CCN(S(=O)(=O)CCCc1ccccc1O)CC2 [Compound 318, 2-cyclohexyl-8-[3-(2-hydroxy-phenyl)-propane-1-sulfonyl]-1,3,8-triaza-spiro[4.5]dec-1-en-4-one] | 52
CS(=O)(=O)n1ccc2c(CCS(=O)(=O)N3CCC4(CC3)N=C(C3CCCCC3)NC4=O)cccc21 [Compound 312, 2-cyclohexyl-8-[2-(1-methanesulfonyl-1H-indol-4-yl)-ethanesulfonyl]-1,3,8-triaza-spiro[4.5]dec-1-en-4-one] | 49
Cc1cc(C(=O)N2CCC(O)(CO)CC2)cc(C)c1CCS(=O)(=O)N1CCC2(CC1)N=C(c1cccc(OC(F)(F)F)c1)NC2=O [Compound 831, 8-{2-[4-(4-hydroxy-4-hydroxymethyl-piperidine-1-carbonyl)-2,6-dimethyl-phenyl]-ethanesulfonyl}-2-(3-trifluoromethoxy-phenyl)-1,3,8-triaza-spiro[4.5]dec-1-en-4-one] | 4.7
Cc1nc(C)c(S(=O)(=O)N2CCC3(CC2)N=C(C2CCCCC2)NC3=O)s1 [Compound 58, 2-cyclohexyl-8-(2,4-dimethyl-thiazole-5-sulfonyl)-1,3,8-triaza-spiro[4.5]dec-1-en-4-one] | 39
Cc1cc(N2COCC2=O)ccc1CCS(=O)(=O)N1CCC2(CC1)N=C(C1CCC(C)CC1)NC2=O (stereo not shown) [Compound 866, 2-(4-methyl-cyclohexyl)-8-{2-[2-methyl-4-(4-oxo-oxazolidin-3-yl)-phenyl]-ethanesulfonyl}-1,3,8-triaza-spiro[4.5]dec-1-en-4-one] | 47
O=C1NC(c2ccc(Cl)cc2Cl)=NC12CCN(S(=O)(=O)/C=C/c1cccc3c1ccn3C[C@H](O)CO)CC2 [Compound 249, 2-(2,4-dichloro-phenyl)-8-{(E)-2-[1-((S)-2,3-dihydroxy-propyl)-1H-indol-4-yl]-ethenesulfonyl}-1,3,8-triaza-spiro[4.5]dec-1-en-4-one] | 71

Now from value to compound:

cAMP production activity (%) | SMILES
85 | CCCCCCCCCC1=NC2(CCN(S(=O)(=O)CCc3c(C)cc(C(=O)N4CCCC4)cc3C)CC2)C(=O)N1 [Compound 980, 8-{2-[2,6-Dimethyl-4-(pyrrolidine-1-carbonyl)-phenyl]-ethanesulfonyl}-2-nonyl-1,3,8-triaza-spiro[4.5]dec-1-en-4-one]
49 | Cc1cc(C(=O)N2CCN(C3CCN(C)CC3)CC2)ccc1CCS(=O)(=O)N1CCC2(CC1)N=C(c1cccc(C(F)(F)F)c1)NC2=O [Compound 958]
95 | Cc1cc(N2C(=O)CNC2=O)ccc1CCS(=O)(=O)N1CCC2(CC1)N=C(C1CC(C)(C)CC(C)(C)C1)NC2=O [Compound 952, 3-(3-methyl-4-{2-[4-oxo-2-(3,3,5,5-tetramethyl-cyclohexyl)-1,3,8-triaza-spiro[4.5]dec-1-ene-8-sulfonyl]-ethyl}-phenyl)-imidazolidine-2,4-dione]
77 | Cc1cc(C(=O)N2CC[C@@H](F)C2)cc(C)c1/C=C/S(=O)(=O)N1CCC2(CC1)N=C(c1cccc(OC(F)(F)F)c1)NC2=O [Compound 959, 8-{(E)-2-[4-((R)-3-Fluoro-pyrrolidine-1-carbonyl)-2,6-dimethyl-phenyl]-ethenesulfonyl}-2-(3-trifluoromethoxy-phenyl)-1,3,8-triaza-spiro[4.5]dec-1-en-4-one]
62 | Cc1cc2cc(C)c1CCS(=O)(=O)N1CCC3(CC1)N=C(CCCCCCCCCCCCCC(=O)N2C)NC3=O [Compound 1445]
94 | Cc1cc(C(=O)N2CCC(C)(O)CC2)cc(C)c1/C=C/S(=O)(=O)N1CCC2(CC1)N=C(c1ccc(C(F)(F)F)c(OC(C)(C)C(F)(F)F)c1)NC2=O [Compound 1209, 8-{(E)-2-[4-(4-hydroxy-4-methyl-piperidine-1-carbonyl)-2,6-dimethyl-phenyl]-ethenesulfonyl}-2-[3-(2,2,2-trifluoro-1,1-dimethyl-ethoxy)-4-trifluoromethyl-phenyl]-1,3,8-triaza-spiro[4.5]dec-1-en-4-one]
95 | Cc1cc(C2=NC3(CCN(S(=O)(=O)CCc4c(C)cc(C(=O)N5CCC(O)(CF)CC5)cc4C)CC3)C(=O)N2)ccc1C(F)(F)F [Compound 1277, 8-{2-[4-(4-fluoromethyl-4-hydroxy-piperidine-1-carbonyl)-2,6-dimethyl-phenyl]-ethanesulfonyl}-2-(3-methyl-4-trifluoromethyl-phenyl)-1,3,8-triaza-spiro[4.5]dec-1-en-4-one]
90 | [2H]C([2H])([2H])C([2H])(Oc1cc(C2=NC3(CCN(S(=O)(=O)/C=C/c4c(C)cc(C(=O)N5CCC(C)(O)CC5)cc4C)CC3)C(=O)N2)ccc1F)C([2H])([2H])[2H] [Compound 1225, 2-(4-fluoro-3-[1,2,2,2,2,2,2-^2H7]isopropoxy-phenyl)-8-{(E)-2-[4-(4-hydroxy-4-methyl-piperidine-1-carbonyl)-2,6-dimethyl-phenyl]-ethenesulfonyl}-1,3,8-triaza-spiro[4.5]dec-1-en-4-one]
69 | CC(=O)Nc1ccc(CCS(=O)(=O)N2CCC3(CC2)N=C([C@H]2CC[C@@H](C/C=C/F)CC2)NC3=O)c(C)c1 [Compound 1070, N-[4-(2-{2-[4-((E)-3-fluoro-allyl)-cyclohexyl]-4-oxo-1,3,8-triaza-spiro[4.5]dec-1-ene-8-sulfonyl}-ethyl)-3-methyl-phenyl]-acetamide]
89 | Cc1cc(N2C(=O)CNC2=O)ccc1CCS(=O)(=O)N1CCC2(CC1)N=C(C1CCC(C(F)(F)F)CC1)NC2=O (stereo not shown) [Compound 947, 3-(3-methyl-4-{2-[4-oxo-2-(4-trifluoromethyl-cyclohexyl)-1,3,8-triaza-spiro[4.5]dec-1-ene-8-sulfonyl]-ethyl}-phenyl)-imidazolidine-2,4-dione]
111 | Cc1cc(C(=O)N2CCC(O)(CF)CC2)ccc1CCS(=O)(=O)N1CCC2(CC1)N=C([C@H]1CC[C@H](CC=C(F)F)CC1)NC2=O [Compound 974, 2-[4-(3,3-difluoro-allyl)-cyclohexyl]-8-{2-[4-(4-fluoromethyl-4-hydroxy-piperidine-1-carbonyl)-2-methyl-phenyl]-ethanesulfonyl}-1,3,8-triaza-spiro[4.5]dec-1-en-4-one]
